The source of these data is publication PMC3967790 (Journal of pharmaceutical sciences, 2013).

In brackets after ≈: the same amount, converted by molar mass. Where two headings read alike, the source gives them in different places.

By solubility is commonly meant the dissolved amount per volume that the medium holds. For orientation: bioavailability means dose-corrected exposure relative to a reference, in per cent.

For series [1] the following is noted: FVB, mouse, brain, oral, 20 mg/kg.
A short description of series [2]: Equilibrium solubility of elacridar in microemulsion components. Conditions: 37 °C, oil or lipid, thermodynamic from solid. It counts as physicochemical.
For series [3] the following is noted: mouse, cited from earlier work.

`C#Cc1cccc(Nc2ncnc3cc(OCCOC)c(OCCOC)cc23)c1` [erlotinib]: the concentration at 1 h in series [1] is 76.4 ± 7.8 ng/mL.
In the case of `COc1cc2c(cc1OC)CN(CCc1ccc(NC(=O)c3cccc4c(=O)c5cccc(OC)c5[nH]c34)cc1)CC2` [elacridar, N-(4-(2-(1,2,3,4-tetrahydro-6,7-dimethoxy-2-isoquinolinyl)ethyl)phenyl)-9,10-dihydro-5-methoxy-9-oxo-4-acridine carboxamide], the solubility at 24 h in series [2] (Captex 300 (oil)) and in series [2] (Captex 355 (oil)) was 300 ± 1 µg/mL (≈ 532 µM) throughout. Moreover, the bioavailability is listed as about 1% in series [3] (intraperitoneal dose, suspension) and “about 22%” in series [3] (oral dose, suspension at 100 mg/kg).
